Values quoted from earlier work, collected in article PMC6957711 (Journal of Alzheimer's Disease, 2020).

How the values were obtained:
[1] = Phase III clinical studies
tau = conditions: in vitro

In the case of `CN(C)c1ccc2c(c1)Sc1cc(N(C)C)ccc1N2.CS(=O)(=O)O.CS(=O)(=O)O` [LMTX, Leuco-Methylthioninium Bis(Hydromethanesulphonate)], the clinical endpoints [1] is listed as “failed to meet its clinical endpoints”.
In the case of `CN(C)c1ccc2nc3ccc(=[N+](C)C)cc-3sc2c1` [methylene blue], the tau fibril formation (tau) is given as “inhibits” and the tau oligomer formation (tau) is given as “accelerates”.
